Source: patent publication US20210277020A1, “HETEROCYCLIC COMPOUNDS AS MONOACYLGLYCEROL LIPASE INHIBITORS” (Hoffmann-La Roche Inc., priority 2018, published 2021)

Molecular target: T1, MAGL (recombinant wild-type) (Homo sapiens, UniProt Q99685)
T1 sequence (Q99685 1-303): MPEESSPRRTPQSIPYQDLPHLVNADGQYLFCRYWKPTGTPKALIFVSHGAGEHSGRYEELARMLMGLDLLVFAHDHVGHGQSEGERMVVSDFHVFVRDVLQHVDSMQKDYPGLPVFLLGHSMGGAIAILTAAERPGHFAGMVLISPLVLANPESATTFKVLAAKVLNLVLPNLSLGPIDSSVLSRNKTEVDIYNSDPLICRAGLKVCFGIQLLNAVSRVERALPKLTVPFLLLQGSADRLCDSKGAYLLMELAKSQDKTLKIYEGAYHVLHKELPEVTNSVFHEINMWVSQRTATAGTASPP
Experiment: 4-NPA assay: MAGL inhibition followed by hydrolysis of 4-nitrophenylacetate, absorbance at 405 nm
Type: biochemical
Conditions: measured in 4-NPA assay (footnote [b]); 1 nM MAGL, 300 μM 4-nitrophenylacetate
Procedure: Compounds were profiled for MAGL inhibitory activity by measuring the enzymatic activity of MAGL by following the hydrolysis of 4-nitrophenylacetate resulting in 4-nitrophenol, which absorbs at 405-412 nm (G. G. Muccioli, G. Labar, D. M. Lambert, Chem. Bio. Chem. 2008, 9, 2704-2710). This assay is hereinafter abbreviated “4-NPA assay”.
The 4-NPA assay was carried out in 384 well assay plates (black with clear bottom, non-binding surface treated, Corning Ref. 3655) in a total volume of 40 μL. Compound dilutions were made in 100% DMSO (VWR Chemicals 23500.297) in a polypropylene plate in 3-fold dilution steps to give a final concentration range in the assay from 25 μM to 1.7 nM. 1 μL compound dilutions (100% DMSO) were added to 19 μL MAGL (recombinant wild-type) in assay buffer (50 mM TRIS (GIBCO, 15567-027), 1 mM EDTA (Fluka, 03690-100 mL)). The plate was shaked for 1 min at 2000 rpm (Variomag Teleshake) and then incubated for 15 min at RT. To start the reaction, 20 μL 4-Nitrophenlyacetate (Sigma N-8130) in assay buffer with 6% EtOH was added. The final concentrations in the assay were 1 nM MAGL and 300 μM 4-Nitrophenylacetate. After shaking (1 min, 2000 rpm) and 5 min incubation at RT, the absorbance at 405 nm was measured for a fist time (Molecular Devices, SpectraMax Paradigm). A second measurement was then done after incubation for 80 min at RT. From the two measurements, the slope was calculated by subtracting the first from the second measurement.

Row | SMILES | IC50 [nM]
1 | CN(C(=O)Cc1cccc(C(F)(F)F)c1)C1CCN(C(=O)N2CC[C@@H]3OCC(=O)N[C@@H]3C2)CC1 [Example 86, N-[1-[(4aR,8aS)-3-oxo-4,4a,5,7,8,8a-hexahydropyrido[4,3-b][1,4]oxazine-6-carbonyl]piperidin-4-yl]-N-methyl-2-[3-(trifluoromethyl)phenyl]acetamide] | 519
2 | O=C1CO[C@H]2CCN(C(=O)N3CCC(C(=O)NCc4ccccc4)CC3)C[C@H]2N1 [Example 65, N-Benzyl-1-((4aR,8aS)-3-oxooctahydro-2H-pyrido[4,3-b][1,4]oxazine-6-carbonyl)piperidine-4-carboxamide] | 2900
3 | O=C1CO[C@H]2CCN(C(=O)N3CCC(C(=O)N(CCO)Cc4ccccc4)CC3)C[C@H]2N1 [Example 63, N-Benzyl-N-(2-hydroxyethyl)-1-((4aR,8aS)-3-oxooctahydro-2H-pyrido[4,3-b][1,4]oxazine-6-carbonyl)piperidine-4-carboxamide] | 4400
4 | CN(C(=O)c1ccc(C(F)(F)F)cc1)C1CCN(C(=O)N2CC[C@@H]3OCC(=O)N[C@@H]3C2)CC1 [Example 85, N-[1-[(4aR,8aS)-3-oxo-4,4a,5,7,8,8a-hexahydropyrido[4,3-b][1,4]oxazine-6-carbonyl]piperidin-4-yl]-N-methyl-4-(trifluoromethyl)benzamide] | 1990

Molecular target: T2, MAGL (Homo sapiens, UniProt Q99685)
T2 sequence (Q99685 1-303): T1 sequence (Q99685 1-303)
Experiment: 2-AG assay: MAGL inhibition followed by hydrolysis of 2-arachidonoylglycerol to arachidonic acid, mass spectrometry
Type: biochemical
Conditions: measured in 2-AG assay (footnote [a]); substrate 2-arachidonoylglycerol 8 μM, 30 min at RT
Procedure, shortened: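 Test compounds (final […], 3-fold steps) preincubated 15 min at RT with […] in 50 mM Tris, 1 mM EDTA, 0.01% Tween; 8 μM 2-arachidonoylglycerol then added for 30 min at RT. Acetonitrile quench; arachidonic acid measured by RapidFire SPE–MS/MS, activity from arachidonic acid/d8-arachidonic acid ratio.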

Row | SMILES | IC50 [nM]
5 | CN(C(=O)Cc1cccc(C(F)(F)F)c1Cl)C1CCN(C(=O)N2CC[C@@H]3OCC(=O)N[C@@H]3C2)CC1 [Example 83, N-[1-[(4aR,8aS)-3-oxo-4,4a,5,7,8,8a-hexahydropyrido[4,3-b][1,4]oxazine-6-carbonyl]piperidin-4-yl]-2-[2-chloro-3-(trifluoromethyl)phenyl]-N-methylacetamide] | 608
6 | O=C1CO[C@H]2CCN(C(=O)N3CC(C#Cc4ccccc4OC(F)(F)F)C3)C[C@H]2N1 [Example 170, (4aR,8aS)-6-[3-[2-[2-(Trifluoromethoxy)phenyl]ethynyl]azetidine-1-carbonyl]-4,4a,5,7,8,8a-hexahydropyrido[4,3-b][1,4]oxazin-3-one] | 4
7 | CC1(C#Cc2ccc(Cl)cc2Cl)CCN(C(=O)N2CC[C@@H]3OCC(=O)N[C@@H]3C2)CC1 [Example 196, (4aR,8aS)-6-(4-((2,4-Dichlorophenyl)ethynyl)-4-methylpiperidine-1-carbonyl)hexahydro-2H-pyrido[4,3-b][1,4]oxazin-3(4H)-one] | 92
8 | O=C1CO[C@H]2CCN(C(=O)N3CC(C#Cc4ccccc4Br)C3)C[C@H]2N1 [Example 171, (4aR,8aS)-6-[3-[2-(2-Bromophenyl)ethynyl]azetidine-1-carbonyl]-4,4a,5,7,8,8a-hexahydropyrido[4,3-b][1,4]oxazin-3-one] | 7
9 | O=C1CO[C@H]2CCN(C(=O)N3CC(CSc4ccc(C(F)(F)F)cc4Cl)C3)C[C@H]2N1 [Example 148, (4aR,8aS)-6-[3-[[2-Chloro-4-(trifluoromethyl)phenyl]sulfanylmethyl]azetidine-1-carbonyl]-4,4a,5,7,8,8a-hexahydropyrido[4,3-b][1,4]oxazin-3-one] | 2
10 | COc1cccc(C#CC2CN(C(=O)N3CC[C@@H]4OCC(=O)N[C@@H]4C3)C2)c1C [Example 183, (4aR,8aS)-6-[3-[2-(3-Methoxy-2-methylphenyl)ethynyl]azetidine-1-carbonyl]-4,4a,5,7,8,8a-hexahydropyrido[4,3-b][1,4]oxazin-3-one] | 11
11 | O=C1CO[C@H]2CCN(C(=O)N3CC(SCc4c(F)cccc4C(F)(F)F)C3)C[C@H]2N1 [Example 295, (4aR,8aS)-6-(3-((2-Fluoro-6-(trifluoromethyl)benzyl)thio)azetidine-1-carbonyl)hexahydro-2H-pyrido[4,3-b][1,4]oxazin-3(4H)-one] | 23
12 | O=C1CO[C@H]2CCN(C(=O)N3CC(C#Cc4c(Cl)cccc4Cl)C3)C[C@H]2N1 [Example 157, (+)-(4aR,8aS)-6-(3-((2,6-Dichlorophenyl)ethynyl)azetidine-1-carbonyl)hexahydro-2H-pyrido[4,3-b][1,4]oxazin-3(4H)-one] | 5
13 | O=C1CO[C@H]2CCN(C(=O)N3CC(C#CC4=CCCC4)C3)C[C@H]2N1 [Example 199, (4aR,8aS)-6-[3-[2-(Cyclopenten-1-yl)ethynyl]azetidine-1-carbonyl]-4,4a,5,7,8,8a-hexahydropyrido[4,3-b][1,4]oxazin-3-one] | 107
14 | O=C1CO[C@H]2CCN(C(=O)N3CCC(C#Cc4ccccc4C(F)(F)F)CC3)C[C@H]2N1 [Example 192, (4aR,8aS)-6-(4-((2-(Trifluoromethyl)phenyl)ethynyl)piperidine-1-carbonyl)hexahydro-2H-pyrido[4,3-b][1,4]oxazin-3(4H)-one] | 18
15 | CN(c1ccc(C(F)(F)F)cc1)C1CCN(C(=O)N2CC[C@@H]3OCC(=O)N[C@@H]3C2)CC1 (racemic) [Example 136, rac-(4aR,8aS)-6-[4-[N-methyl-4-(trifluoromethyl)anilino]piperidine-1-carbonyl]-4,4a,5,7,8,8a-hexahydropyrido[4,3-b][1,4]oxazin-3-one] | 22
